Where two headings read alike, the source gives them in different places.
Assays:
[1] = Acute toxicity in mice (LD50); type: in vivo; settings: mouse, in vivo
Description: (§1) The following Table 2 contains values already given in U.S. Pat. No. 4,064,255 and supplies additional values obtained according to the same procedure.

[2] = molecular target: benzodiazepine receptor (^3 H-diazepam binding sites, rat brain membranes)
Description: This efficacy is measured by Ki values in micro moles calculated by using the equation:
C=the concentration of ^3 H-diazepam,
KD =the affinity constant=2,74 μM, and
IC50 =the concentration causing 50% inhibition of ^3 H-diazepam binding.

[3] = system: Mice; experiment: Acute toxicity in mice (LD50); type: in vivo
Description: as §1

[4] = iv, I.V., read-out: Acute toxicity LD50, I.V.
[5] = po, orally, read-out: Acute toxicity LD50, orally

Row | SMILES | LD50 [1, 4] | LD50 [1, 5] | Ki [2] | Acute toxicity LD50, I.V. [3] | Acute toxicity LD50, orally [3]
1 | COc1ccc2[nH]cc(CCC3CCNCC3)c2c1 [Example 8, [(Methoxy-5 indolyl-3)-2 ethyl]-4 piperidine] | 41 mg/kg | 675 mg/kg | 40 µM |  | 
2 | Clc1ccc2[nH]cc(CCC3CCNCC3)c2c1 [Example 12, [(Chloro-5 indolyl-3)-2 ethyl]-4 piperidine] | 85 mg/kg | 625 mg/kg | 37 µM |  | 
3 | c1ccc2c(CCCC3CCNCC3)c[nH]c2c1 [Example 13, [(Indolyl-3)-3 propyl]-4 piperidine] | 29 mg/kg | 600 mg/kg | 70 µM |  | 
4 | Cn1cc(CCC2CCNCC2)c2ccccc21 [Example 9, [(Methyl-1 indolyl-3)-2 ethyl]-4 piperidine] |  |  | 90 µM | 44 mg/kg | 225 mg/kg
5 | O=C(CC1CCNCC1)c1c[nH]c2ccccc12 [Example 1, Indolyl-3-(piperidyl-4-methyl)ketone] | 47 mg/kg | 300 to 900 mg/kg | 43 µM |  | 
6 | c1ccc2c(CCC3CCNCC3)c[nH]c2c1 [Example 10, [(Indolyl-3)-2 ethyl]-4 piperidine] |  |  | 64 µM | 60 mg/kg | 600 mg/kg
7 | c1ccc2c(CC3CCNCC3)c[nH]c2c1 [Example 11, (Indolyl-3 methyl)-4 piperidine] |  |  | 90 µM | 57 mg/kg | 225 mg/kg
8 | c1ccc(Cn2cc(CCC3CCNCC3)c3ccccc32)cc1 [Example 14, [(Benzyl-1 indolyl-3)-2 ethyl]-4 piperidine] | 33 mg/kg | 525 mg/kg | 33 µM |  | 

— patent US4208417A, “Indole derivatives and their use as anxiolytics” (Pharmindustrie, priority 1978, dated 1980)
